Data reported in US12378224B2 (Dong-A Socio Holdings Co., Ltd., priority 2016, dated 2025).
pIC50: −log10 of the molar value.

What follows are molecules tested against human c-MER catalytic domain (Homo sapiens (Human), UniProt Q12866) (assay: TR-FRET Kinase Activity Biochemical Assay (LanthaScreen)). Details: 10 uM ATP, 1 hour, kinase not given.
Method in brief: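 Activity was quantified as the ratio of 495 nm to 520 nm emission (excitation 340 nm) in a LanthaScreen TR-FRET format. The enzyme was the human c-MER catalytic domain, and the substrate was fluorescein-poly-GT. Detection used 2 nM Tb anti-phosphotyrosine antibody for 30 min after termination with 10 mM EDTA.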

human c-MER catalytic domain, sequence (Q12866 587-858): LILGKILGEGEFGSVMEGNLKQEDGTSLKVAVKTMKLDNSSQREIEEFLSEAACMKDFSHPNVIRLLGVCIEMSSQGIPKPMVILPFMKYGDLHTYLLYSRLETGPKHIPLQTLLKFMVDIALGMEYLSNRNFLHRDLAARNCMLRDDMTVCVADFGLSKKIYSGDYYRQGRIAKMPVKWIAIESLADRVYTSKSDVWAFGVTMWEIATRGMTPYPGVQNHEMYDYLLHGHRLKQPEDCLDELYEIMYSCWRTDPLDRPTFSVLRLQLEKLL

SMILES	pIC50
Cn1cc(-c2cnc(N)c(C(=O)NC3CN(C(=O)c4cccc(-c5ccccc5)c4)C3)c2)cn1 [Example 670, N-(1-([1,1′-biphenyl]-3-carbonyl)azetidin-3-yl)-2-amino-5-(1-methyl-1H-pyrazol-4-yl)nicotinamide]	< 6.00
Nc1ncc(-c2ccc(C(=O)N3CCOCC3)cc2)cc1C(=O)N[C@@H]1CCN(C(=O)Nc2cc(Cl)cc(Cl)c2)C1 [Example 9, (R)-2-amino-N-(1-((3,5-dichlorophenyl)carbamoyl)pyrrolidin-3-yl)-5-(4-(morpholine-4-carbonyl)phenyl)nicotinamide]	7.00 to 8.00
Cn1cc(-c2cnc(N)c(C(=O)N[C@@H]3CCN(C(=O)c4nc5cc(Cl)ccc5o4)C3)c2)cn1 [Example 498, (R)-2-amino-N-(1-(5-chlorobenzo[d]oxazole-2-carbonyl)pyrrolidin-3-yl)-5-(1-methyl-1H-pyrazol-4-yl)nicotinamide]	< 6.00
Cn1cc(-c2cnc3[nH]nc(N[C@@H]4CCN(C(=O)c5ccc(Oc6ccccc6)cc5)C4)c3c2)cn1 [Example 791, (R)-(3-((5-(1-methyl-1H-pyrazol-4-yl)-1H-pyrazolo[3,4-b]pyridin-3-yl)amino)pyrrolidin-1-yl)(4-phenoxyphenyl)methanone]	6.00 to 7.00
Cn1cc(-c2cnc(N)c(C(=O)N[C@@H]3CCN(Cc4cc(Cl)cc(Cl)c4O)C3)c2)cn1 [Example 223, (R)-2-amino-N-(1-(3,5-dichloro-2-hydroxybenzyl)pyrrolidin-3-yl)-5-(1-methyl-1H-pyrazol-4-yl)nicotinamide]	6.00 to 7.00
Cn1cc(-c2cnc(N)c(C(=O)N[C@@H]3CCN(C(=O)c4cccc(-c5ccc6c(c5)NC(=O)C6=O)c4)C3)c2)cn1 [Example 495, (R)-2-amino-N-(1-(3-(2,3-dioxoindolin-6-yl)benzoyl)pyrrolidin-3-yl)-5-(1-methyl-1H-pyrazol-4-yl)nicotinamide]	< 6.00
Cn1cc(-c2cnc(N)c(C(=O)N[C@@H]3CCN(C(=O)C4Cc5ccccc5C4)C3)c2)cn1 [Example 496, (R)-2-amino-N-(1-(2,3-dihydro-1H-indene-2-carbonyl)pyrrolidin-3-yl)-5-(1-methyl-1H-pyrazol-4-yl)nicotinamide]	< 6.00
Cn1cc(-c2cnc(N)c(C(=O)N[C@@H]3CN(C(=O)c4ccc(-c5ccccc5)cc4)C[C@@H]3O)c2)cn1 [Example 743, N-((3R,4S)-1-([1,1′-biphenyl]-4-carbonyl)-4-hydroxypyrrolidin-3-yl)-2-amino-5-(1-methyl-1H-pyrazol-4-yl)nicotinamide]	< 6.00
Cn1cc(-c2cnc(N)c(C(=O)N[C@@H]3CCN(C(=O)Oc4cccc(-c5ccc(CN6CCC(N)CC6)cc5)c4)C3)c2)cn1 [Example 317, 4′-((4-aminopiperidin-1-yl)methyl)-[1,1′-biphenyl]-3-yl (R)-3-(2-amino-5-(1-methyl-1H-pyrazol-4-yl)nicotinamido)pyrrolidine-1-carboxylate]	7.00 to 8.00
CC(=O)n1ccc2c(C(=O)N3CC[C@@H](NC(=O)c4cc(-c5cnn(C)c5)cnc4N)C3)cccc21 [Example 514, (R)—N-(1-(1-acetyl-1H-indole-4-carbonyl)pyrrolidin-3-yl)-2-amino-5-(1-methyl-1H-pyrazol-4-yl)nicotinamide]	< 6.00
Cn1cc(-c2cnc(N)c(C(=O)N[C@@H]3CCN(C(=O)c4ccc5[nH]c6c(c5c4)CCC6)C3)c2)cn1 [Example 503, (R)-2-amino-5-(1-methyl-1H-pyrazol-4-yl)-N-(1-(1,2,3,4-tetrahydrocyclopenta[b]indole-7-carbonyl)pyrrolidin-3-yl)nicotinamide]	< 6.00

Further lines, results first:

pIC50	SMILES
6.00 to 7.00	Nc1ncc(-c2ccc(C(=O)N3CCOCC3)cc2)cc1C(=O)N[C@@H]1CCN(Cc2ccc(Cl)cc2)C1 [Example 235, (R)-2-amino-N-(1-(4-chlorobenzyl)pyrrolidin-3-yl)-5-(4-(morpholine-4-carbonyl)phenyl)nicotinamide]
7.00 to 8.00	Cn1cc(-c2cnc(N)c(C(=O)N[C@@H]3CCN(C(=O)c4ccc(-c5c(F)cccc5F)cc4)C3)c2)cn1 [Example 364, (R)-2-amino-N-(1-(2′,6′-difluoro-[1,1′-biphenyl]-4-carbonyl)pyrrolidin-3-yl)-5-(1-methyl-1H-pyrazol-4-yl)nicotinamide]
7.00 to 8.00	Cn1cc(-c2cnc(N)c(C(=O)N[C@@H]3CCN(C(=O)Oc4cccc(-c5ccccc5)c4)C3)c2)cn1 [Example 117, [1,1′-biphenyl]-3-yl (R)-3-(2-amino-5-(1-methyl-1H-pyrazol-4-yl)nicotinamido)pyrrolidine-1-carboxylate]
6.00 to 7.00	Cn1cc(-c2cnc(N)c(C(=O)N[C@@H]3CCN(C(=S)Nc4ccc(N5CCOCC5)cc4)C3)c2)cn1 [Example 49, (R)-2-amino-5-(1-methyl-1H-pyrazol-4-yl)-N-(1-((4-morpholinophenyl)carbamothioyl)pyrrolidin-3-yl)nicotinamide]
7.00 to 8.00	Cn1cc(-c2cnc(N)c(C(=O)N[C@@H]3CCN(C(=O)Nc4cccc(Cl)c4Cl)C3)c2)cn1 [Example 15, (R)-2-amino-N-(1-((2,3-dichlorophenyl)carbamoyl)pyrrolidin-3-yl)-5-(1-methyl-1H-pyrazol-4-yl)nicotinamide]
6.00 to 7.00	Cn1cc(-c2cnc(N)c(C(=O)N[C@@H]3CCN(C(=O)c4ccc(-c5ccc(OC6CCNC6)cc5)cc4)C3)c2)cn1 (stereo partly drawn) [Example 532, 2-amino-5-(1-methyl-1H-pyrazol-4-yl)-N-((3R)-1-(4′-(pyrrolidin-3-yloxy)-[1,1′-biphenyl]-4-carbonyl)pyrrolidin-3-yl)nicotinamide]
7.00 to 8.00	Cn1cc(-c2cnc(N)c(C(=O)N[C@@H]3CCN(C(=O)c4ccc(C5=CCCCC5)cc4)C3)c2)cn1 [Example 494, (R)-2-amino-5-(1-methyl-1H-pyrazol-4-yl)-N-(1-(2′,3′,4′,5′-tetrahydro-[1,1′-biphenyl]-4-carbonyl)pyrrolidin-3-yl)nicotinamide]
7.00 to 8.00	Nc1ncc(-c2ccc(N3CCOCC3)cc2)cc1C(=O)N[C@@H]1CCN(C(=O)c2ccc(-c3ccccc3)cc2)C1 [Example 557, (R)—N-(1-([1,1′-biphenyl]-4-carbonyl)pyrrolidin-3-yl)-2-amino-5-(4-morpholinophenyl)nicotinamide]
6.00 to 7.00	Cn1cc(-c2cnc(N)c(C(=O)N[C@@H]3CCN(C(=O)O[C@H]4CCN(c5ccccc5)C4)C3)c2)cn1 [Example 128, (S)-1-phenylpyrrolidin-3-yl (R)-3-(2-amino-5-(1-methyl-1H-pyrazol-4-yl)nicotinamido)pyrrolidine-1-carboxylate]
6.00 to 7.00	CN1CCC(NCc2ccc(-c3ccc(C(=O)N4CC[C@@H](NC(=O)c5cc(-c6cnn(C)c6)cnc5N)C4)cc3)cc2)CC1 [Example 549, (R)-2-amino-5-(1-methyl-1H-pyrazol-4-yl)-N-(1-(4′-(((1-methylpiperidin-4-yl)amino)methyl)-[1,1′-biphenyl]-4-carbonyl)pyrrolidin-3-yl)nicotinamide]
7.00 to 8.00	CN(C)c1ccc(Oc2ccc(-c3ccc(C(=O)N4CC[C@@H](NC(=O)c5cc(-c6cnn(C)c6)cnc5N)C4)cc3)cc2)cc1 [Example 529, (R)-2-amino-N-(1-(4′-(4-(dimethylamino)phenoxy)-[1,1′-biphenyl]-4-carbonyl)pyrrolidin-3-yl)-5-(1-methyl-1H-pyrazol-4-yl)nicotinamide]
